Test results reported in ChEMBL document CHEMBL5365395, “Optimization of a series of novel, potent and selective Macrocyclic SYK inhibitors” (Bioorg Med Chem Lett, 2023).

How the values were obtained:
[1] = Lipophilicity, logD of the compound in buffer/octanol volume ratio of 100:1 at pH 7.4 by shake flask method; assay type: physicochemical
[2] = Intrinsic Clearance in human liver microsome; assay type: ADME; details: liver microsomes, read-out: CLH
[3] = Intrinsic clearance in rat hepatocytes assessed per million cells; assay type: ADME, cell-based, Hepatocyte; details: read-out: CLH
[4] = target: Voltage-gated inwardly rectifying potassium channel KCNH2 (Homo sapiens, UniProt Q12809); test: Inhibition of human ERG by patch clamp assay; assay type: toxicity
Sequence of Voltage-gated inwardly rectifying potassium channel KCNH2 (Q12809 whole entry): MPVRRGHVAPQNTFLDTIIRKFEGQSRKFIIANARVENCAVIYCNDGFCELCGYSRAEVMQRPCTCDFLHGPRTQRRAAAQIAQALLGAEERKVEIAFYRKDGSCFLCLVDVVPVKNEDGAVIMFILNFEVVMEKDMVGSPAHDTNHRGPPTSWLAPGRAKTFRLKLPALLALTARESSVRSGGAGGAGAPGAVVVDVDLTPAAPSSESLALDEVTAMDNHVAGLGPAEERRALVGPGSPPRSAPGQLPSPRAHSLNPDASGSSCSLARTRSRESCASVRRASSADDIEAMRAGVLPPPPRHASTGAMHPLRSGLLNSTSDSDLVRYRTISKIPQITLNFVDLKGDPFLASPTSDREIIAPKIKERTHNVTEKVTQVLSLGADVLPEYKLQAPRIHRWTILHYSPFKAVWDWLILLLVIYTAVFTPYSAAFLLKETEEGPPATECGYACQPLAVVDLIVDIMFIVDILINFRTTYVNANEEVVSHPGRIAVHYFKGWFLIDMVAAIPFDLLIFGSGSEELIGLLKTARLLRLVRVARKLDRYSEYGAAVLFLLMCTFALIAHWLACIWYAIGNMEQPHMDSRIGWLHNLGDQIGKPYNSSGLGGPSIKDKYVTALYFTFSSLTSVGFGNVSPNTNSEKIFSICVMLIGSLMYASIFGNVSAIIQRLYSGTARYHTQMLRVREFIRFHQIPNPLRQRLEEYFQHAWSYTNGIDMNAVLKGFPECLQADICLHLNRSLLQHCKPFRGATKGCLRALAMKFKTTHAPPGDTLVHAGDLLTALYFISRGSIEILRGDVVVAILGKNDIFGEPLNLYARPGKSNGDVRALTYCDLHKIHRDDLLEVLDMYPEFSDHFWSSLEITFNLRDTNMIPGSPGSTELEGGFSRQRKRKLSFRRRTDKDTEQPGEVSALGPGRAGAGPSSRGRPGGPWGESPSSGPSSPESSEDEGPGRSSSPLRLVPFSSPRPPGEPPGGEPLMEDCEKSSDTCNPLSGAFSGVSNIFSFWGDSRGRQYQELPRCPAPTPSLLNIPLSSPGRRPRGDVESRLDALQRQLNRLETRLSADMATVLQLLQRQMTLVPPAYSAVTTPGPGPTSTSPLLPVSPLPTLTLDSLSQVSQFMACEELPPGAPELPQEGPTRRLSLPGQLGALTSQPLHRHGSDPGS

SUD4 = test: Cytotoxicity against human SU-DHL-4 cells assessed as reduction in cell viability
[5] = Apparent permeability across apical to basolateral side in human Caco-2 cells at pH 6.5 after 45 to 120 mins by LC-MS/MS analysis; assay type: ADME, cell-based; details: Caco-2, pH 6.5, time 45-120 min
[6] = Hydrolytic stability of the compound at pH 7.4 assessed as half life; assay type: physicochemical; details: buffer
[7] = Hydrolytic stability of the compound at pH 10 assessed as half life; assay type: physicochemical; details: buffer
[8] = Hydrolytic stability of the compound at pH 1 assessed as half life; assay type: physicochemical; details: buffer
[9] = Oral bioavailability in Han-Wistar rat at 2 umol/kg; assay type: ADME, organism-based; details: in vivo, at 2 µmol/kg
[10] = Clearance in Beagle Dog at 1 umol/kg, iv; assay type: ADME, Canis lupus familiaris; details: in vivo, dose 1 µmol/kg
[11] = Plasma protein binding in Han-Wistar rat assessed as fraction unbound; assay type: ADME, cell-free
[12] = Intrinsic clearance in Han-Wistar rat hepatocytes; assay type: ADME, cell-based, Hepatocyte
[13] = Volume of distribution at steady state in Han-Wistar rat at 1 umol/kg, iv; assay type: ADME; details: in vivo, dose 1 µmol/kg, read-out: Vdss
[14] = Intrinsic clearance in Beagle Dog hepatocytes; assay type: ADME, cell-based, Canis lupus familiaris, Hepatocyte
[15] = Clearance in Han-Wistar rat at 1 umol/kg, iv; assay type: ADME; details: in vivo, dose 1 µmol/kg
[16] = Volume of distribution at steady state in Beagle Dog at 1 umol/kg, iv; assay type: ADME, Canis lupus familiaris; details: in vivo, dose 1 µmol/kg, read-out: Vdss
[17] = Oral bioavailability in Beagle Dog at 2 umol/kg; assay type: ADME, organism-based, Canis lupus familiaris; details: in vivo, at 2 µmol/kg
[18] = target: Mitogen-activated protein kinase kinase kinase 9 (Homo sapiens) (UniProt P80192); test: Inhibition of MAP3K9 (unknown origin) at 0.1 uM relative to control
Sequence of Mitogen-activated protein kinase kinase kinase 9 (Homo sapiens) (P80192 whole entry, looked up): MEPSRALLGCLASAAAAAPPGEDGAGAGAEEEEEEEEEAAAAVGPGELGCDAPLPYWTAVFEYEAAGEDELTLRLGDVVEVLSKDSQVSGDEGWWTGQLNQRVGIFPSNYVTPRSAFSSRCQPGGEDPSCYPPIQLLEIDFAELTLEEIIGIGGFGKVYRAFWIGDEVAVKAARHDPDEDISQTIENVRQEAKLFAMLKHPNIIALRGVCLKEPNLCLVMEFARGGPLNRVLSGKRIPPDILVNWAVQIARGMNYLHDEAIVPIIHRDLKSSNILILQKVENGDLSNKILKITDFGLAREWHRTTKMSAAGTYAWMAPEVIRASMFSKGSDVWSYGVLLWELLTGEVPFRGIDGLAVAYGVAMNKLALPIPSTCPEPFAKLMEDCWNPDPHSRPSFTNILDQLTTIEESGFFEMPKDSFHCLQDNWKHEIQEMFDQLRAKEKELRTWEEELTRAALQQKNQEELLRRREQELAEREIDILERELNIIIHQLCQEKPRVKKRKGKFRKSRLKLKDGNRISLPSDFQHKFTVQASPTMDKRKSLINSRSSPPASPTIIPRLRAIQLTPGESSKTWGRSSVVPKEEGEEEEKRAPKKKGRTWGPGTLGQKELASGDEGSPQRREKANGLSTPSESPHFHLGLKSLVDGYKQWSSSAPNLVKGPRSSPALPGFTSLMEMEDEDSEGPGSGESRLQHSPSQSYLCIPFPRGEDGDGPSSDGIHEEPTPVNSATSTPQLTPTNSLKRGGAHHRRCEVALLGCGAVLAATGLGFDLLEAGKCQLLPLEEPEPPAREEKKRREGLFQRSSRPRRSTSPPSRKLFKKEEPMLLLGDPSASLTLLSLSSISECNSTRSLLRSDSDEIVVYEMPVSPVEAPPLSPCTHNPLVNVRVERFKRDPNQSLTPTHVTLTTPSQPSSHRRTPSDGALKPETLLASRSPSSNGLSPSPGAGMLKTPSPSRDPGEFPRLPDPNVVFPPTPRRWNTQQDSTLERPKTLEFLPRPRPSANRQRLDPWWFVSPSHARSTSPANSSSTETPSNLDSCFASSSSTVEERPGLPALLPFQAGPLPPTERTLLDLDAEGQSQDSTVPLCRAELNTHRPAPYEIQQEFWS

[19] = target: Tyrosine-protein kinase SYK (Homo sapiens, UniProt P43405); test: Inhibition of full length recombinant human SYK

Row | logD [1] | microsomal CLint [2] [µL/min/mg] | hepatocyte CLint [3] [µL/min/1e6 cells] | Papp A→B [5] [×10⁻⁶ cm/s] | SMILES | IC50 [4] [nM] | IC50 (SUD4) [nM] | further results
1 | 1.4 | 39 | 4.4 |  | Cc1nn2cc1CN(C)CCOCCNC(=O)c1nn(C[C@@H](C)O)c3ccc(cc13)Nc1nccc-2n1 | 22000 | 260 | 
2 | 1.7 | 28 | 4.6 | 3.7 | Cc1nn2cc1CN(C)CCOCCNC(=O)c1nn(C3COC3)c3ccc(cc13)Nc1nccc-2n1 | 3700 | 550 | 
3 | 1.2 | 23 | < 1.6 | 1.12 | Cc1nn2cc1CN(C)CCOCCNC(=O)c1nn(CCO)c3ccc(cc13)Nc1nccc-2n1 | > 39000 | 280 | bioavailability [9]: 0.9%; clearance [10]: 9 mL/min/kg; Fu [11]: 16%; CLH [12]: < 1.5 µL/min/1e6 cells; Vd [13]: 2.1 L/kg; CLH [14]: < 1 µL/min/1e6 cells; clearance [15]: 33 mL/min/kg; Vd [16]: 1.9 L/kg; bioavailability [17]: 0.38%
4 | 1.9 | > 300 | 198 | 3.6 | CC(=O)OCCn1nc2c3cc(ccc31)Nc1nccc(n1)-n1cc(c(C)n1)CN(C)CCOCCNC2=O | 2100 | 990 | half-life [6]: 6.8 h; half-life [7]: < 0.5 h; half-life [8]: 0.7 h
5 | 2.7 | 44 | 12 |  | Cc1nn2cc1CN(C)CCCCCNC(=O)c1nn(C)c3ccc(cc13)Nc1nccc-2n1 |  | 2200 | 
6 | 1.6 | 52 | 3.4 |  | Cc1nn2cc1CN(C)CCOCCNC(=O)c1nn(CC(C)(C)O)c3ccc(cc13)Nc1nccc-2n1 | 8000 | 480 | 
7 | 1.3 | 34 | 6.5 |  | Cc1nn2cc1CN(C)CCOCCNC(=O)c1nn(C[C@H](C)O)c3ccc(cc13)Nc1nccc-2n1 | > 22000 | 390 | 
8 | 1.8 | 25 | 8.1 | 19 | Cc1nn2cc1CN(C)CCOCCNC(=O)c1nn(C)c3ccc(cc13)Nc1nccc-2n1 | 850 | 570 | bioavailability [9]: 64%; inhibition [18]: > 70%; Fu [11]: 7%; CLH [12]: 8.1 µL/min/1e6 cells; Vd [13]: 1.9 L/kg; clearance [15]: 16 mL/min/kg; IC50 [19]: 0.13 nM

Continued, compound first:

Row | SMILES | logD [1] | microsomal CLint [2] [µL/min/mg] | hepatocyte CLint [3] [µL/min/1e6 cells] | Papp A→B [5] [×10⁻⁶ cm/s] | IC50 [4] [nM] | IC50 (SUD4) [nM] | further results
9 | CNC(=O)c1nn(C)c2ccc(Nc3nccc(-n4cc(CN(C)C)c(C)n4)n3)cc12 |  |  |  |  |  | 240 | 
10 | Cc1nn2cc1CN(C)CCOCCNC(=O)c1nn(CCOC(=O)C(C)(C)C)c3ccc(cc13)Nc1nccc-2n1 | 3.1 | > 300 | 163 | 8 | 1100 | 1000 | half-life [6]: 30 h; half-life [7]: 5 h; half-life [8]: > 100 h
11 | CC(=O)OC(C)(C)Cn1nc2c3cc(ccc31)Nc1nccc(n1)-n1cc(c(C)n1)CN(C)CCOCCNC2=O | 2.5 | 229 | 63 | 13 | 1200 | 850 | half-life [6]: 72 h; half-life [7]: 2.9 h; half-life [8]: 6.5 h
12 | Cc1nn2cc1CN(C)N1CCC(CCNC(=O)c3nn(C)c4ccc(cc34)Nc3nccc-2n3)CC1 | 2.3 | 76 | 15 |  |  | 350 | 
13 | Cc1nn2cc1CN(C)N1CC(CNC(=O)c3nn(C)c4ccc(cc34)Nc3nccc-2n3)C1 | 1.2 | 18 | 27 |  |  | 1200 | 
14 | Cc1nn2cc1CN(C)N1CCC(O)(CCNC(=O)c3nn(C)c4ccc(cc34)Nc3nccc-2n3)CC1 | 1.6 | 28 | 2.1 | 1.9 | 8800 | 100 | 
